Legend:
[1] = system: RAW264 cells; experiment: Osteoclast differentiation, TRAP activity; type: cell-based, mouse; conditions: RANKL 50 ng/ml, 3 days; FIG. 7 solid bars
Method: RAW264 cells (mouse monocyte/macrophage cell line, cell No. RCB0535) were purchased from RIKEN Cell Bank. The osteoclast differentiation-inducing factor (RANKL) was obtained from Wako Pure Chemical Industries, Ltd. Others used were the same as above.
(§1) RAW264 cells were suspended in α-MEM and plated in a 96-well microplate at a concentration of 3×10^3 cells/well. The compounds of the present invention at each concentration and the osteoclast differentiation-inducing factor (RANKL) were added at 50 ng/ml and the cells were cultured for 3 days in an incubator at 37° C. and 5% CO2. After incubation, the cells were fixed with a 10% formalin solution and refixed with 100% ethanol.
After the dishes were dried, as an index of differentiation, the activity of tartrate-resistant acid phosphatase (TRAP), a marker enzyme of osteoclasts, was measured by the following method.
For measurement of the TRAP activity, a buffer containing 10 mM tartrate and 50 mM citrate of pH 4.6, with 3.7 mM p-nitrophenylphosphate as a substrate, was used. […] Thereafter, 100 μl of 0.1 N sodium hydroxide was added to terminate the reaction, followed by measurement of the absorbance at 405 nm with a plate reader. Each absorbance was determined to be the TRAP activity, and the value calculated by taking control as 100 was shown.

[2] = system: MC3T3-E1 cells; experiment: Initial osteoblast differentiation, alkaline phosphatase (ALP) activity; type: cell-based, mouse; conditions: compound 1-100 μM, 6 days; FIG. 2 solid bars
Method: (§2) MC3T3-E1 cells which are mouse pre-osteoblastic cells were suspended in α-MEM and plated on each well of a 96-well microplate at a concentration of 5×10^3 cells/well. After 2-day pre-incubation in 10% FBS-containing α-MEM under a condition of 37° C. and 5% CO2, the culture medium was replaced with 10% FBS-containing α-MEM containing a compound at a concentration of 1, 3, 10, 30 or 100 μM and the cells were cultured for 6 days. During the incubation, the culture medium was replaced once in every 3 days. The cells cultured in the same manner using the medium without coumarin compounds were used as a control.
(§3) In addition, the activity of alkaline phosphatase (ALP), a marker enzyme of initial osteoblast differentiation, was measured by the following method. After incubation, the cells were fixed with cold methanol, and the dishes were dried. 100 μl of buffer of pH 8.5 containing 2 mM magnesium chloride and 100 mM Tris-HCl, with 6.7 mM p-nitrophenylphosphate as a substrate, was dispensed in each well and allowed to react at 37° C. for 30 minutes. Then, 100 μl of 0.1 N sodium hydroxide was added to terminate the reaction, followed by measurement with a plate reader of the absorbance at 405 nm, which was determined to be the ALP activity. The value was calculated by taking the control as 100.

[3] = system: Postmenopausal osteoporosis model mice; experiment: Bone formation-promoting effect in vivo, ovariectomized mice, femur pQCT; design: species or system mouse; conditions: OVX mice, 50 mg/kg/day oral, 30+30 days, versus OVX-Con
Method: Postmenopausal osteoporosis model mice were prepared by ovariectomy and test compounds were administrated to the mice with decreased bone mass, to examine the effects on bone formation in vivo level.
Slc; ddY mice (4 week-old, female) were purchased from Chubu Kagaku Shizai Co., Ltd. After 2 days, ovariectomy (“OVX”) or sham operation (“Sham”) was performed under Nembutal anesthesia. After the mice were bred for 1 month in order to decrease bone mass due to the progression in bone resorption, a part of mice in each group (OVX: N=5, Sham: N=3) were killed to collect the femurs. The rest of mice in the ovariectomy (“OVX”) group were divided into two groups: solvent administration group (“OVX-Con”: N=6) and auraptene administration group (50 mg/kg/day, oral administration, “OVX-AUR”: N=6) and bred for another month together with the sham operation group (Sham-Con: N=6). Thereafter, the mice were killed to collect the femurs.
The bone mineral content density and the like of the collected femurs were measured by means of pQCT (peripheral Quantitative Computed Tomography) using a bone density measuring apparatus (trade name “XCT Research SA+”, manufactured by Stratec Medizintechnik GmbH).

[4] = system: MC3T3-E1 cells; experiment: Comparison with BMP-2 and effect of BMP signal inhibitors on ALP activity; type: cell-based, mouse; conditions: 6 days
Method: as §3
Upon the addition of the sample, the cells were cultured for 6 days in the presence or absence of 10 ng/ml Noggin, a BMP inhibitor, or 1 μM Dorsomorphin, an inhibitor of type I BMP receptor (ALK) (the above concentrations are the final concentrations), and the ALP activities were measured in the same manner as above.

[5] = system: MC3T3-E1 cells; experiment: Effect on osteoblast proliferation (MTT); type: cell-based, mouse; conditions: compound 1, 3, 10 or 30 μM, 3 days, FIG. 1
Method: The effect on osteoblast proliferation was determined by the following method.
MC3T3-E1 cells were suspended in α-MEM and plated on each well of a 96-well microplate at a concentration of 2×10^3 cells/well. After overnight incubation in 10% fetal bovine serum (FBS)-containing α-MEM under a condition of 37° C. and 5% CO2, the culture medium was replaced with 10% FBS-containing α-MEM containing a compound at a concentration of 1, 3, 10 or 30 μM and cultured for 3 days. The cells cultured in the same manner using the medium containing the same amount of solvent only were used as a control.
Added was 3-(4,5-Dimethylthiazol-2-yl)-2,5-diphenyltetrazolium bromide (MTT) (5 mg/ml in PBS) in one-tenth amount of the culture medium 2 hours before the completion of incubation. After 2-hour cultivation, the medium was removed, formazan formed by viable cells was dissolved in DMSO and the absorbance at 570 nm (reference wavelength of 630 nm) was measured with a plate reader. The relative cell numbers were determined by calculating the values taking the control as 100 (average plus or minus standard deviation of 4 wells or more; the same hereinafter).

[6] = system: MC3T3-E1 cells; experiment: Expression of genes related to osteoblast differentiation, real-time RT-PCR; type: cell-based, mouse; conditions: compared with control
Method: The effects on the expression of various genes related to osteoblast differentiation were analyzed using the real-time RT-PCR method.
MC3T3-E1 cells were plated in each well of a 6-well plate (Greiner) at a concentration of 1.5×10^5 cells/well and cultured in the same manner as above. […] After incubation, the culture medium was removed and the cells were washed with PBS. Thereafter, “ISOGEN” (trade name, Wako Pure Chemical Industries, Ltd.) was added in an amount of 1 ml/well and the cells were collected. RNA purification was conducted according to the protocol described in the package insert of “ISOGEN”.
Reverse transcription was performed using “PrimeScript RT-PCR Kit” (trade name, TaKaRa) with 2 μg of purified RNA according to the protocol described in the package insert, thereby synthesizing the cDNA sample.
Real-time PCR was performed using “FastStart Universal SYBR Green Master (Rox)” (trade name, Roche) according to the protocol described in the package insert under the following conditions: incubation at 50° C. for 2 min and at 95° C. for 10 min, followed by 50 cycles of 15 sec at 95° C. and 1 min at 60° C. Data were analyzed with “ABI PRISM 7300 sequence detection system” (trade name, Applied Biosystems).
Primers used were as described in the following Table 2.
Data analysis was performed as follows using β-actin as an endogenous control gene by the comparative Ct method.
Δ Ct=(Ct of target gene)−(Ct of endogenous control gene)
ΔΔ Ct=(Δ Ct of target sample)−(Δ Ct of reference sample)
Relative expression level of target gene of target sample to that of reference sample=2 (^−ΔΔ^Ct)

[7] = system: MC3T3-E1 cells; experiment: Cell number (MTT) in initial osteoblast differentiation culture; type: cell-based, mouse; conditions: compound 1-100 μM, 6 days, FIG. 2 open bars
Method: as §2
At the end of incubation, the cell number was measured by the same method as above using a MTT reagent and the value was calculated by taking the control as 100.

[8] = system: RAW264 cells; experiment: Cell number (MTT) in osteoclast differentiation culture; type: cell-based, mouse; conditions: RANKL 50 ng/ml, 3 days, FIG. 7 open bars
Method: as §1
In addition, after similarly cultured, the cells were counted by a conventional method using a MTT reagent, and the value calculated by taking the control as 100 was shown.

[9] = system: MC3T3-E1 cells; experiment: Osteoblast calcification, alizarin red S staining; type: cell-based, mouse; conditions: compared with control
Method: 3. Effects on Osteoblast Calcification MC3T3-E1 cells were suspended in α-MEM and plated in each well of a 96-well microplate at a concentration of 5×10^3 cells/well and pre-incubated for 2 days in 10% FBS-containing α-MEM under a condition of 37° C. and 5% CO2. Thereafter, the culture medium was replaced with 10% FBS-containing α-MEM containing a compound at a concentration of 1, 3, 10 or 30 μM, 50 μg/ml ascorbic acid and 10 mM β-glycerophosphoric acid, and the cells were cultured for 10 days. During the incubation, the culture medium was changed once in every 3 or 4 days.
After incubation, the cells were fixed with 70% ethanol, the dishes were dried, and calcium deposits were stained with a 1% alizarin red S solution. The image of the stained plate was obtained using a scanner. In addition, the degree of stain (degree of calcification) was evaluated by naked eyes.

**Q.** How did the “TRAP activity as an index of osteoclast differentiation” value [1] turn out when `CC(C)=CCC/C(C)=C/COc1ccc2ccc(=O)oc2c1` [auraptene, 2H-1-benzopyran-2-one, 7-[[(2E)-3,7-dimethyl-2,6-octadiene-1-yl]oxy]-] was run?
**A.** do not affect osteoclast differentiation

**Q.** And the “ALP activity (control as 100)” value [2]?
**A.** increased in a concentration-dependent manner

**Q.** And the “trabecular bone mineral density” value ([3]; FIG. 6A)?
**A.** tended to be high

**Q.** And the “total bone mineral density” value ([3]; FIG. 6B)?
**A.** tended to be high

**Q.** And the “cortical bone periosteal circumference” value ([3]; FIG. 6C)?
**A.** tended to be long

**Q.** What about the “cortical bone endosteal circumference” value ([3]; FIG. 6D) of the same compound?
**A.** tended to be long

**Q.** And the “effect of promoting ALP activity in presence of Dorsomorphin” value ([4]; Dorsomorphin 1 μM, auraptene 30 μM or BMP-2 25 ng/ml)?
**A.** diminished

**Q.** And the “effect of promoting ALP activity in presence of Noggin” value ([4]; Noggin 10 ng/ml, auraptene 30 μM or BMP-2 25 ng/ml)?
**A.** diminished

**Q.** And the “effect of promoting ALP activity” value ([4]; auraptene 30 μM versus BMP-2 25 ng/ml, FIG. 4)?
**A.** equivalent to or more than that with BMP-2 (25 ng/ml)

**Q.** And the “cell number of MC3T3-E1 cells (relative, control as 100)” value [5]?
**A.** little change in cell number

**Q.** What about the “expression of ALP gene” value ([6]; auraptene 30 μM or BMP-2 50 ng/ml, FIG. 5A) of the same compound?
**A.** increased

**Q.** And the “expression of osteocalcin gene” value ([6]; auraptene 30 μM or BMP-2 50 ng/ml, FIG. 5B)?
**A.** increased

**Q.** And the “expression of Runx 2 gene” value ([6]; auraptene 30 μM or BMP-2 50 ng/ml, FIG. 5C)?
**A.** increased

**Q.** And the “expression of Osterix gene” value ([6]; auraptene 30 μM or BMP-2 50 ng/ml, FIG. 5D)?
**A.** increased

**Q.** And the “expression of BMP-2 gene” value ([6]; auraptene 30 μM, FIG. 5E)?
**A.** increased

**Q.** What about the “expression of BMP-4 gene” value ([6]; auraptene 30 μM, FIG. 5F) of the same compound?
**A.** increased

**Q.** And the “cell viability of MC3T3-E1 cells (control as 100)” value [7]?
**A.** little influence on cell viability

**Q.** What about the “cell number of RAW264 cells (control as 100)” value [8] of the same compound?
**A.** did not show a significant influence

**Q.** What about the “calcified portions stained red” value [9] of the same compound?
**A.** remarkably increased compared with control

Reference: patent publication US8729279B2, “Agent for promoting osteoblast differentiation, pharmaceutical composition for promoting bone formation, and food for special dietary use containing auraptene analog as active ingredient” (Erina Co., Inc., priority 2010, dated 2014)
